Experiments:
Assay in all cases: Test C postemergence
Assay type in all cases: in vivo
[1] = test system: pigweed (Amaranthus retroflexus); details: Amaranthus retroflexus, post-emergence, 336 h, Postemergence, scale 0 to 100, read-out: Plant response rating, Pigweed
Method in brief: (§1)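 Treatment is preemergence to seeds in a loam and sand soil, or postemergence to plants 2 to 18 cm high in a peat moss-based medium. The compound is delivered in a non-phytotoxic solvent mixture including surfactant. Effects are judged by eye 13 to 15 days later on a 0 to 100 scale.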

[2] = test system: corn (Zea mays); details: Zea mays, post-emergence, 336 h, Postemergence, scale 0 to 100
Method in brief: as §1

[3] = test system: kochia (Kochia scoparia); details: Bassia scoparia, post-emergence, Postemergence, scale 0 to 100, read-out: Plant response rating, Kochia
Method in brief: as §1

[4] = test system: galium (catchweed bedstraw, Galium aparine); details: Galium, post-emergence, 336 h, Postemergence, scale 0 to 100, read-out: Plant response rating, Galium
Method in brief: as §1

[5] = test system: winter wheat (Triticum aestivum); details: Triticum aestivum, post-emergence, 336 h, Postemergence, scale 0 to 100, read-out: Plant response rating, Wheat
Method in brief: as §1

[6] = test system: ragweed (common ragweed, Ambrosia elatior); details: Ambrosia artemisiifolia, post-emergence, 336 h, Postemergence, scale 0 to 100, read-out: Plant response rating, Ragweed
Method in brief: as §1

[7] = test system: waterhemp (common waterhemp, Amaranthus rudis); details: Amaranthus tuberculatus, post-emergence, Postemergence, scale 0 to 100, read-out: Plant response rating, Waterhemp
Method in brief: as §1

[8] = test system: Italian ryegrass (Lolium multiflorum); details: Lolium multiflorum, post-emergence, 336 h, Postemergence, scale 0 to 100, read-out: Plant response rating, Ryegrass, Italian
Method in brief: as §1

[9] = test system: barnyardgrass (Echinochloa crus-galli); details: Echinochloa crus-galli, post-emergence, Postemergence, scale 0 to 100, read-out: Plant response rating, Barnyardgrass
Method in brief: as §1

[10] = test system: large (Lg) crabgrass (Digitaria sanguinalis); details: Digitaria sanguinalis, post-emergence, 336 h, Postemergence, scale 0 to 100, read-out: Plant response rating, Crabgrass, Large
Method in brief: as §1

[11] = test system: johnsongrass (Sorghum halepense); details: Sorghum halepense, post-emergence, 336 h, Postemergence, scale 0 to 100, read-out: Plant response rating, Johnsongrass
Method in brief: as §1

[12] = test system: wild oat (Avena fatua); details: Avena fatua, post-emergence, Postemergence, scale 0 to 100, read-out: Plant response rating, Oat, Wild
Method in brief: as §1

[13] = test system: soybean (Glycine max); details: Glycine max, post-emergence, Postemergence, scale 0 to 100, read-out: Plant response rating, Soybean
Method in brief: as §1

[14] = test system: oilseed rape (Brassica napus); details: Brassica napus, post-emergence, Postemergence, scale 0 to 100, read-out: Plant response rating, Oilseed Rape
Method in brief: as §1

[15] = test system: morningglory (Ipomoea coccinea); details: Ipomoea, post-emergence, 336 h, Postemergence, scale 0 to 100, read-out: Plant response rating, Morningglory
Method in brief: as §1

N#Cc1cccc(Oc2ncc(Cl)cn2)c1Oc1ncc(Br)cn1 [Compound 4, 2-[(5-bromo-2-pyrimidinyl)oxy]-3-[(5-chloro-2-pyrimidinyl)oxy]benzonitrile]
100%: pest or weed control at 125 g/ha ([3]; 125 g ai/ha)
80%: pest or weed control at 62 g/ha ([1]; 62 g ai/ha) | pest or weed control at 62 g/ha ([3]; 62 g ai/ha) | pest or weed control at 31 g/ha ([15]; 31 g ai/ha)
85%: pest or weed control at 125 g/ha ([6]; 125 g ai/ha) | pest or weed control at 62 g/ha ([15]; 62 g ai/ha)
50%: pest or weed control at 31 g/ha ([6]; 31 g ai/ha)
0%: plant injury at 31 g/ha ([5]; 31 g ai/ha) | pest or weed control at 31 g/ha ([8]; 31 g ai/ha) | pest or weed control at 62 g/ha ([8]; 62 g ai/ha)
55%: pest or weed control at 16 g/ha ([4]; 16 g ai/ha) | pest or weed control at 31 g/ha ([4]; 31 g ai/ha) | pest or weed control at 31 g/ha ([7]; 31 g ai/ha)
95%: pest or weed control at 125 g/ha ([1]; 125 g ai/ha) | pest or weed control at 125 g/ha ([4]; 125 g ai/ha) | pest or weed control at 125 g/ha ([15]; 125 g ai/ha)
75%: pest or weed control at 62 g/ha ([6]; 62 g ai/ha) | pest or weed control at 62 g/ha ([7]; 62 g ai/ha)
5%: Corn plant response rating (crop injury, 0 = no effect, 100 = complete kill) at 16 g/ha ([2]; 16 g ai/ha) | Corn plant response rating (crop injury, 0 = no effect, 100 = complete kill) at 31 g/ha ([2]; 31 g ai/ha) | Corn plant response rating (crop injury, 0 = no effect, 100 = complete kill) at 62 g/ha ([2]; 62 g ai/ha) | plant injury at 62 g/ha ([5]; 62 g ai/ha) | plant injury at 125 g/ha ([5]; 125 g ai/ha) | pest or weed control at 125 g/ha ([8]; 125 g ai/ha) | pest or weed control at 16 g/ha ([9]; 16 g ai/ha) | pest or weed control at 31 g/ha ([9]; 31 g ai/ha) | pest or weed control at 62 g/ha ([9]; 62 g ai/ha) | pest or weed control at 125 g/ha ([9]; 125 g ai/ha) | pest or weed control at 16 g/ha ([10]; 16 g ai/ha) | pest or weed control at 31 g/ha ([10]; 31 g ai/ha) | pest or weed control at 62 g/ha ([10]; 62 g ai/ha) | pest or weed control at 16 g/ha ([11]; 16 g ai/ha) | pest or weed control at 31 g/ha ([11]; 31 g ai/ha) | pest or weed control at 62 g/ha ([11]; 62 g ai/ha) | pest or weed control at 125 g/ha ([11]; 125 g ai/ha) | pest or weed control at 31 g/ha ([12]; 31 g ai/ha)
45%: plant injury at 62 g/ha ([14]; 62 g ai/ha)
60%: pest or weed control at 16 g/ha ([3]; 16 g ai/ha) | pest or weed control at 31 g/ha ([3]; 31 g ai/ha) | pest or weed control at 62 g/ha ([4]; 62 g ai/ha) | plant injury at 125 g/ha ([14]; 125 g ai/ha)
10%: Corn plant response rating (crop injury, 0 = no effect, 100 = complete kill) at 125 g/ha ([2]; 125 g ai/ha) | pest or weed control at 125 g/ha ([10]; 125 g ai/ha) | pest or weed control at 62 g/ha ([12]; 62 g ai/ha) | pest or weed control at 125 g/ha ([12]; 125 g ai/ha) | plant injury at 31 g/ha ([14]; 31 g ai/ha)
65%: pest or weed control at 31 g/ha ([1]; 31 g ai/ha)
70%: pest or weed control at 125 g/ha ([7]; 125 g ai/ha) | plant injury at 31 g/ha ([13]; 31 g ai/ha) | plant injury at 62 g/ha ([13]; 62 g ai/ha) | plant injury at 125 g/ha ([13]; 125 g ai/ha)

Source: patent US20170190671A1, “BIS(ARYL)CATECHOL DERIVATIVES AS HERBICIDES” (E I DU PONT DE NEMOURS AND COMPANY, priority 2014, published 2017)
